Measurements reported in paper PMC10291553, “Exploring Structure–Activity Relationships in Photodynamic Therapy Anticancer Agents Based on Ir(III)-COUPY Conjugates” (Journal of Medicinal Chemistry, 2023).

Legend:
[1] = set-up: method as in earlier work; conditions: previously-reported parent compounds, cited from earlier work; for singlet oxygen quantum yield at 355 nm, ACN / singlet oxygen quantum yield at 355 nm, DCM / singlet oxygen quantum yield at 355 nm, PBS: excitation 355 nm
[2] = system: A375, SK-MEL-28, HeLa, A2780 and A2780cis cancer cells; test: Photo- and cytotoxicity, statements across the studied cancer cell lines; type: cell-based; conditions: for IC50: absence of light, regardless of the cell line, read-out: dark IC50 in the studied cancer cell lines
From the text: Having shown that the Ir(III)-COUPY conjugates can sensitize both type I and II ROS through spectroscopic techniques and readily internalize into living cells, their photocytotoxicity was screened in various cancer cell lines. This screening included two representative melanoma cell lines (human A375 and […] human SK-MEL-28) and cancer cells with resistance to the clinical drug cisplatin. For the latter, both sensitive and cisplatin-resistant ovarian cancer cells (A2780 and A2780cis) as well as HeLa cells, which also show a degree of chemoresistance to the platinum anticancer drug in vitro,[54] were used. For the determination of dark and light cytotoxicity, dose–response curves were assayed from both conditions to provide the correspondent IC50 values, which correspond to the concentration needed for inhibition of cell growth by 50%. Phototherapeutic index (PI) was calculated as the ratio of dark to light IC50 value for each compound.
A2780, A2780cis, HeLa, A375, and SK-MEL-28 cells were maintained at logarithmic growth-phase and cultured in 96-well plates at a density of 5000 cells/well in complete medium for 24 h at 310 K, 5% CO2 in a humidified incubator. For hypoxia experiments, a hypoxia condition was set up by Tissue Culture Service at University of Murcia using nitrogen (N2) to displace O2 down to a minimum of 2% in a Forma Steri-Cycle i160 incubator (Thermo Fisher Scientific). Serial dilutions of the compounds were added at the final concentrations in the range of 0–100 μM in a final volume of 100 μL per well. A light-based treatment schedule was performed as follows: 1 h incubation with the compounds in the dark, followed by 1 h incubation under irradiation conditions by placing the Photoreactor EXPO-LED from Luzchem (Canada) fitted with green lamps (final light intensity applied of 1.5 mW/cm^2 at λmax = 520 nm) inside the CO2 incubator. All the cell culture plates subjected to light irradiation included untreated controls to verify that cell viability was not affected by light. Then, treatment-containing media was removed, and fresh media was added for a 48 h cell recovery period; the temperature throughout the experiment remained at 310 K. Dark control samples were placed in the same dark conditions and then kept incubated for 1 h in the dark in the humidified CO2 incubator. Medium was then aspirated by suction, cells were loaded with 50 μL of MTT solution (1 mg/mL) for additional 4 h and then removed, and 50 μL of DMSO was added to solubilize the purple formazan crystals formed in active cells. The absorbance was measured at 570 nm using a microplate reader (FLUOstar Omega), and the IC50 values were calculated based on the inhibitory rate curves using the following equation [drawing 4] […]

A2780cis cells [3] = test: Cellular accumulation by ICP-MS; type: cell-based; conditions: 2 h treatment at 10 μM
Experimental: Briefly, A2780cis cells were seeded onto a 12-well plate (3 × 10^5 cells/well). Treatments with tested agents for 2 h were applied at 10 μM. Cisplatin was included for comparative purposes. Cells were then trypsinized, and pellets were counted. […] Three independent experiments were performed (n = 2 replicates).

A2780cis cells [4] = test: ROS photogeneration in cells (DCFH-DA probe); type: cell-based; conditions: 10 μM; for ROS levels after 520 nm light, normoxia: normoxia 21% O2, 520 nm, 1 h; for ROS levels in the absence of light, normoxia: dark
Experimental: ROS levels were determined using the 2′-7′dichlorofluorescein diacetate (DCFH-DA) probe. A2780cis cells were seeded onto 96-well black plates at 2 × 10^4cells/well for 24 h in a humidified CO2 incubator either in normoxia (21% O2) or hypoxia (2% O2). Tested compounds were then administered in cell media for the allowed time. Treatments were then removed, and cells were stained with 10 μM of DCFH-DA for 0.5 h. After staining, cells were washed with PBS twice and irradiated for 1 h with LED source light from Luzchem photoreactor (Canada) fitted with green lamps (final light intensity applied of 1.5 mW/cm^2 at λmax = 520 nm). Fluorescence readings were performed in FLUOstar Omega (λexc = 488 nm and λem = 530 ± 30 nm). Non-irradiated plates were used for dark conditions, whereas treated, unstained cells were used to subtract basal fluorescence of compounds and correct fluorescence readings. Unstained cells served as blank. Three independent experiments were performed with n = 3 replicates.

A2780cis cells [5] = test: Cell death induction (Annexin V/PI staining, FSC/SSC flow cytometry); type: cell-based; conditions: 10 μM; for mode of cell death (Annexin V/Propidium Iodide): 1 h + 1 h 520 nm, 24 h recovery; for secondary cell population with low FSC/SSC ratios (non-viable morphology): 1 h, 520 nm 1 h
Experimental: Cell death induction was evaluated using the Annexin V-FITC/Propidium iodide (AV/PI) dual staining method. Briefly, A2780cis cells were seeded in 12-well plates at a density of 2 × 10^5 cells/well and incubated overnight at 310 K. Tested compounds (10 μM) were added, following the described treatment schedule (1 h incubation + 1 h irradiation with 520 nm light). Irradiated, non-treated cells served as the control group. After 24 h of the drug-free recovery period, cells were harvested by trypsinization, washed with PBS and centrifuged, and the pellets were resuspended in 200 μL of a binding buffer as instructed by the manufacturer (Cayman). The resuspended cell solution was left at room temperature in the dark for 15 min before analysis by flow cytometry (FACSCalibur BecktonDickinson; 10^4 events acquired per sample). Cells were visualized using λexc = 488 channels and registered at 525 nm and 620 nm for Annexin V and propidium iodide in FL1 and FL2 channels, respectively. Cell populations were classified as follows: AV^-/PI^- (viable cells); AV^-/PI^+ (necrotic cells); AV^+/PI^- and AV^+/PI^+ (apoptotic cells). Alternatively, A2780cis cells were subjected to flow cytometry after phototreatments and morphological changes were analyzed using FSC and SSC contour plots. Data were analyzed using FlowJo software. Three independent experiments were performed.

[6] = Superoxide anion radical generation using DHR123; type: physicochemical; conditions: 10 μM in PBS (0.2% DMSO); green light 505 nm
Experimental: All compounds (10 μM) were prepared in PBS (0.2% DMSO). To this solution, DHR123 was added so that its final concentration was 10 μM. Then, the samples were irradiated in 1.0 × 0.5 cm cuvette by green light (505 nm centered LED) for indicated time intervals. Immediately, the fluorescence spectra were collected by using a Photon Technology International (PTI) fluorimeter. The excitation wavelength was set to 500 nm, the excitation and emission slit widths were 2 nm, and the integration time was set to 1 s.

CCN(CC)c1ccc2c(c1)O/C(=C(/C#N)c1cc[n+](C)cc1)C=C2C [1a]
singlet oxygen quantum yield at 355 nm, ACN ([1]; ACN): < 0.01
singlet oxygen quantum yield at 532 nm, ACN ([1]; ACN, excitation 532 nm): < 0.01
singlet oxygen quantum yield at 355 nm, DCM ([1]; DCM): < 0.01
singlet oxygen quantum yield at 532 nm, DCM ([1]; DCM, excitation 532 nm): 0.03
singlet oxygen quantum yield at 355 nm, PBS ([1]; PBS): 0
singlet oxygen quantum yield at 532 nm, PBS ([1]; PBS, excitation 532 nm): < 0.01
fold differences in bioactivity upon irradiation ([2]; melanoma cells, 520 nm): more than 86 fold

CC1=C/C(=C(\C#N)c2cc[n+](C)cc2)Oc2ccccc21 [1b]
antiproliferative activity after light irradiation ([2]; 520 nm, investigated cancer cells): did not display antiproliferative activity after light irradiation

CC1=C/C(=C(\C#N)c2cc[n+](C)cc2)Oc2c1cc1c3c2CCCN3CCC1 [1c]
IC50 [2]: 5 to 26 µM

CCCCn1c2[n+](c3cc(C(=O)OC)ccc31)[Ir-3]13([c]4ccccc4-c4[nH]c5ccccc5[n+]41)([c]1ccccc1-c1[nH]c4ccccc4[n+]13)[n+]1c-2ccc2ccccc21 [2a]
Intracellular Ir levels (A2780cis cells [3]): 276 ± 12 ng/10^6 cells
singlet oxygen quantum yield at 355 nm, ACN ([1]; ACN): 0.42
singlet oxygen quantum yield at 355 nm, DCM ([1]; DCM): 0.23
singlet oxygen quantum yield at 355 nm, PBS ([1]; PBS): < 0.01

CCCCn1c2[n+](c3cc(C(=O)NCCCNC(=O)C[n+]4ccc(/C(C#N)=C5/C=C(C)c6ccc(N(CC)CC)cc6O5)cc4)ccc31)[Ir-3]13([c]4ccccc4-c4[nH]c5ccccc5[n+]41)([c]1ccccc1-c1[nH]c4ccccc4[n+]13)[n+]1c-2ccc2ccccc21 [3a]
ROS levels after 520 nm light, normoxia (A2780cis cells [4]): strong fluorescence signal
ROS levels in the absence of light, normoxia (A2780cis cells [4]): slightly increased ROS levels
mode of cell death (Annexin V/Propidium Iodide) (A2780cis cells [5]): photoinduced necrotic cell death
secondary cell population with low FSC/SSC ratios (non-viable morphology) (A2780cis cells [5]): vastly induced these secondary cell populations

CCCCn1c2[n+](c3cc(C(=O)NCCCNC(=O)C[n+]4ccc(/C(C#N)=C5/C=C(C)c6ccccc6O5)cc4)ccc31)[Ir-3]13([c]4ccccc4-c4[nH]c5ccccc5[n+]41)([c]1ccccc1-c1[nH]c4ccccc4[n+]13)[n+]1c-2ccc2ccccc21 [3b]
superoxide anion radical generation (DHR123 fluorescence) [6]: highest maximum emission intensity of superoxide generation
ROS levels after green-light irradiation, hypoxia (A2780cis cells [4]; hypoxia 2% O2, 520 nm): a slight increase in ROS levels
secondary cell population with low FSC/SSC ratios (non-viable morphology) (A2780cis cells [5]): did not produce such changes

CCCCn1c2[n+](c3cc(C(=O)NCCCNC(=O)C[n+]4ccc(/C(C#N)=C5/C=C(C)c6cc7c8c(c6O5)CCCN8CCC7)cc4)ccc31)[Ir-3]13([c]4ccccc4-c4[nH]c5ccccc5[n+]41)([c]1ccccc1-c1[nH]c4ccccc4[n+]13)[n+]1c-2ccc2ccccc21 [3c]
Intracellular Ir levels (A2780cis cells [3]): 461 ± 74 ng/10^6 cells
superoxide anion radical generation (DHR123 fluorescence) [6]: fastest rates in superoxide generation
IC50 [2]: > 100 µM
ROS levels after 520 nm light, normoxia (A2780cis cells [4]): strong fluorescence signal
mode of cell death (Annexin V/Propidium Iodide) (A2780cis cells [5]): photoinduced necrotic cell death
secondary cell population with low FSC/SSC ratios (non-viable morphology) (A2780cis cells [5]): vastly induced these secondary cell populations

CCCCn1c2[n+](c3cc(C(=O)NCCCCCC(=O)NCCCNC(=O)C[n+]4ccc(/C(C#N)=C5/C=C(C)c6ccc(N(CC)CC)cc6O5)cc4)ccc31)[Ir-3]13([c]4ccccc4-c4[nH]c5ccccc5[n+]41)([c]1ccccc1-c1[nH]c4ccccc4[n+]13)[n+]1c-2ccc2ccccc21 [3d]
ROS levels after 520 nm light, normoxia (A2780cis cells [4]): strong fluorescence signal
ROS levels in the absence of light, normoxia (A2780cis cells [4]): slightly increased ROS levels
mode of cell death (Annexin V/Propidium Iodide) (A2780cis cells [5]): photoinduced necrotic cell death
secondary cell population with low FSC/SSC ratios (non-viable morphology) (A2780cis cells [5]): vastly induced these secondary cell populations

CCCCn1c2[n+](c3cc(C(=O)NC[C@H]4CC[C@H](C(=O)NCCCNC(=O)C[n+]5ccc(/C(C#N)=C6/C=C(C)c7ccc(N(CC)CC)cc7O6)cc5)CC4)ccc31)[Ir-3]13([c]4ccccc4-c4[nH]c5ccccc5[n+]41)([c]1ccccc1-c1[nH]c4ccccc4[n+]13)[n+]1c-2ccc2ccccc21 [3e]
ROS levels after 520 nm light, normoxia (A2780cis cells [4]): strong fluorescence signal
ROS levels in the absence of light, normoxia (A2780cis cells [4]): slightly increased ROS levels
mode of cell death (Annexin V/Propidium Iodide) (A2780cis cells [5]): photoinduced necrotic cell death
secondary cell population with low FSC/SSC ratios (non-viable morphology) (A2780cis cells [5]): vastly induced these secondary cell populations
